Data as given in patent US20200062705A1, “NOVEL CRYSTALLINE FORMS” (Biogen MA Inc., priority 2017, published 2020).

Legend:
Assay type in all cases: physicochemical
[1] = Powder bulk density analysis (ring shear tester); conditions: for Initial Density: initial bulk density, corresponds to x = 0 in FIG. 21, mass of powder normalized by volume of the cell; for Density results (Table 21 and FIG. 21) compared with the product of Route D (E12): initial density and density at varying stresses, higher density = more ideal packing
Excerpt: Solid forms prepared according to the procedures described for Routes D, E, and F (Examples 12-14, respectively) were subjected to powder bulk density analysis in accordance with the following procedure.
A ring shear tester (RST-XS.s, Dietmar Schulze, Wolfenbüttel, Germany) with RST CONTROL 95 software was used for the bulk density analysis. For this analysis, Low-Stress Shear Cell, XS-Lr0, bottom ring was over-filled with small portions of powder using a spatula. The excess powder was removed by gently scraping off the powder with the spatula until the powder was flush with the top of the ring. The bottom ring was weighed and the total mass was entered. When prompted the shear cell lid was attached to the loading rod and the filled bottom ring placed on the driving axle for the test. The initial bulk density was calculated by the control software from the mass of powder normalized by the volume of the cell. During the shear test, 5 preshear normal stresses, 0.1, 0.2, 0.3, 0.4, and 0.5 kPa were applied to the powder before it was sheared until steady state was achieved. At each preshear normal stress, the powder was sheared to failure at 5 increasing normal stresses between 0 and the preshear normal stress to generate corresponding shear stresses at failure. A yield locus was generated by applying a linear regression to the shear stresses as a function of the normal stress plot. The Major Principal Stress (x-axis) was the maximum value obtained when a Mohr's circle was drawn through the preshear normal stress and tangential to the yield locus. The volume of powder at each steady state was determined from the change in height of the lid and, together with the initial powder mass, used to calculate the powder bulk densities (y-axis).

[2] = Powder flow function analysis (ring shear tester); conditions: FIG. 22; lower flow function curve = good flow
Excerpt: Solid forms prepared according to the procedures described for Routes D, E, and F (Examples 12-14, respectively) were subjected to powder flow function analysis in accordance with the following procedure:
A ring shear tester (RST-XS.s, Dietmar Schulze, Wolfenbüttel, Germany) with RST CONTROL 95 software was used for the flow function analysis. For this analysis, Low-Stress Shear Cell, XS-Lr0, bottom ring was over-filled with small portions of powder using a spatula. The excess powder was removed by gently scraping off the powder with the spatula until the powder was flush with the top of the ring. The bottom ring was weighed and the total mass was entered. When prompted the shear cell lid was attached to the loading rod and the filled bottom ring placed on the driving axle for the test. To obtain a flow function, 5 yield loci were determined using the “Stress Walk” function in the control software. During the shear test, 5 preshear normal stresses, 0.1, 0.2, 0.3, 0.4, and 0.5 kPa were applied to the powder to generate the 5 yield loci. At each preshear normal stress, the powder was sheared to failure at 5 equally-spaced normal stresses between 0 and the preshear normal stress to generate corresponding shear stresses at failure. Each yield locus was derived by applying a linear regression to the shear stresses as a function of the normal stress plot. […]

[3] = Powder time consolidation behavior analysis (ring shear tester); conditions: FIG. 23; 0 hrs vs 12 hrs storage, x=250 Pa
Excerpt: Solid forms prepared according to the procedures described for Routes E and F (Examples 13 and 14, respectively) were subjected to powder time consolidation behavior analysis in accordance with the following procedure.
A ring shear tester (RST-XS.s, Dietmar Schulze, Wolfenbüttel, Germany) with RST CONTROL 95 software was used for the flow function analysis. For this analysis, Low-Stress Shear Cell, XS-Lr0, bottom ring was over-filled with small portions of powder using a spatula. The excess powder was removed by gently scraping off the powder with the spatula until the powder was flush with the top of the ring. The bottom ring was weighed and the total mass was entered. When prompted the shear cell lid was attached to the loading rod and the filled bottom ring placed on the driving axle for the test. For the time consolidation test, a yield locus was first obtained by applying a 0.1 kPa preshear stress and 5 normal stresses equally spaced between 0 and the preshear stress to the powder and determining the corresponding shear stresses. A fresh powder sample was again prepared and conditioned to a similar steady state as that for the just obtained yield locus. […] The change in the shear stress obtained after this new conditioned state was determined and that represents the time consolidation behavior of the powder. […]

[4] = Relative stability of crystalline forms; conditions: comparison among crystalline forms identified

Row | SMILES | Initial Density [1] [g/mL] | Density results (Table 21 and FIG. 21) compared with the product of Route D (E12) [1] | Powder flow (flow function curve: unconfined yield strength vs major principal stress) compared with a product of Route D (E12) [2] | Time consolidation effect (unconfined yield strength gained on storage) [3] | Stability of the crystalline form relative to other forms [4]
1 | Cl.NC(=O)[C@@H]1CC[C@H](c2ccc(OCc3ccccc3F)cc2)N1 [Form 1, (5R)-5-(4-{[(2-Fluorophenyl)methyl]oxy}phenyl)-L-prolinamide Hydrochloride Form 1 (Anhydrous A)] | – | – | – | – | most stable crystalline form identified to date
2 | Cl.NC(=O)[C@@H]1CC[C@H](c2ccc(OCc3ccccc3F)cc2)N1 [Form 9, (5R)-5-(4-{[(2-Fluorophenyl)methyl]oxy}phenyl)-L-prolinamide Hydrochloride Form 9 (Anhydrous B)] | – | – | – | – | less stable than Anhydrous Form A (Form 1)
3 | Cl.NC(=O)[C@@H]1CC[C@H](c2ccc(OCc3ccccc3F)cc2)N1 [Form 10, (5R)-5-(4-{[(2-Fluorophenyl)methyl]oxy}phenyl)-L-prolinamide Hydrochloride Form 10 (Anhydrous C)] | – | – | – | – | less stable than Anhydrous Form A (Form 1)

The next lines start with results.

Row | Initial Density [1] [g/mL] | Density results (Table 21 and FIG. 21) compared with the product of Route D (E12) [1] | Powder flow (flow function curve: unconfined yield strength vs major principal stress) compared with a product of Route D (E12) [2] | SMILES | Time consolidation effect (unconfined yield strength gained on storage) [3] | Stability of the crystalline form relative to other forms [4]
4 | 0.254 | – | – | Cl.NC(=O)[C@@H]1CC[C@H](c2ccc(OCc3ccccc3F)cc2)N1 [Example E12, (5R)-5-(4-{[(2-Fluorophenyl)methyl]oxy}phenyl)-L-prolinamide Hydrochloride (Anhydrous; Route D)] | – | –
5 | 0.565 | far superior | better | Cl.NC(=O)[C@@H]1CC[C@H](c2ccc(OCc3ccccc3F)cc2)N1 [Example E13, (5R)-5-(4-{[(2-Fluorophenyl)methyl]oxy}phenyl)-L-prolinamide Hydrochloride (Anhydrous; Route E)] | – | –
6 | 0.512 | far superior | better | Cl.NC(=O)[C@@H]1CC[C@H](c2ccc(OCc3ccccc3F)cc2)N1 [Example E14, (5R)-5-(4-{[(2-Fluorophenyl)methyl]oxy}phenyl)-L-prolinamide Hydrochloride (Anhydrous; Route F)] | does not exhibit as much of a consolidation effect as the product of Route E (E13) | –
